Measured values as given in patent US11993640B2, “Treating inflammatory lung disease” (United States Government as represented by the Department …, priority 2019, dated 2024).
Non-standard residues stand in square brackets, D forms with d. Residues, ends and D or L forms follow the SMILES beside them. *: point of attachment. Phe(F5) = N[C@@H](Cc1c(F)c(F)c(F)c(F)c1F)C(=O)O; hArg = N=C(N)NCCCC[C@H](N)C(=O)O; 12Ado = NCCCCCCCCCCCC(=O)O; Nle = CCCC[C@H](N)C(=O)O; Orn = NCCC[C@H](N)C(=O)O; Abu = CC[C@H](N)C(=O)O; PhAc = O=C(Cc1ccccc1)*

Experiments:
RT4 cells = experiment: In vitro cell viability, urothelial cancer RT4; assay type: cell-based, human; details: 5 μM, 72 h; relative to MIA602 = 1; Table 3A
Experimental: (§1) The inhibitory effects of the various synthesized GHRH antagonists were tested in cell proliferation assays in various human cancer cell lines including stomach cancer (KATOIII, N87), colon cancer (HT-29), urothelial cancer (J82, RT4), pancreatic cancer (PANC-1, CFPAC-1), prostatic cancer (PC3), breast cancer (MX-1, HCC1806), ovarian cancer (SK-OV-3, OVCAR-3) and lung cancer (HCC827, H460).
(§2) Cell culture. Human cancer cell lines including pancreatic (PANC-1 and CFPAC-1), lung (HCC827 and H460), stomach (NCI-N87 and KATOIII), urothelial (J82, RT4), prostatic (PC3), breast (MX-1 and HCC 1806), colorectal (HT-29), and ovarian (SK-OV-3 and OVCAR-3) were obtained from the American Type Culture Collection (ATCC) and cultured at 37° C. in a humidified 95% air/5% CO2 atmosphere in the medium recommended by ATCC.
In vitro cell viability. Cell viability was analyzed as follows: cancer cells including pancreatic (PANC-1 and CFPAC-1), lung (HCC827 and H460), stomach (NCI-N87 and KATOIII), urothelial (J82, RT4), prostatic (PC3) and breast (MX-1 and HCC 1806), colorectal (HT-29) and ovarian (SK-OV-3 and OVCAR-3) were grown on 96 well plates to ˜60% confluence, the cells were starved for 24 h in culture medium containing 0.5% FBS. Cells were then treated with GHRH antagonists MIA602 AVR compounds at concentrations of 1, 2.5 or 5 μM, or vehicle (0.1% DMSO) in quintuplicates for 72 hours. The medium was replaced every 48 hours. Cell viability was measured using CellTiter 96 aqueous one solution kit (Promega). Inhibitory effects of tested AVR compounds in comparison to that of MIA602 are presented as inhibitory potency.
Inhibitory effects of selected AVR compounds in comparison to that of MIA602 are presented as inhibitory potency (e.g., percentage of inhibition). […] The cell lines tested including lung cancer HCC827 (FIG. 2A), pancreatic cancer CFPAC-1 (FIG. 2B), stomach cancer N87 (FIG. 2C), colon cancer HT-29 (FIG. 2D), breast cancers MX-1 and HCC1806 (FIGS. 2E, F). […]

SK-OV-3 cells = experiment: In vitro cell viability, ovarian cancer SK-OV-3; assay type: cell-based, human; details: * at concentration of 2 μM for 72 h; Table 3B
Experimental: as §1, §2
In vitro cell viability. Cell viability was analyzed as follows: cancer cells including pancreatic (PANC-1 and CFPAC-1), lung (HCC827 and H460), stomach (NCI-N87 and KATOIII), urothelial (J82, RT4), prostatic (PC3) and breast (MX-1 and HCC 1806), colorectal (HT-29) and ovarian (SK-OV-3 and OVCAR-3) were grown on 96 well plates to ˜60% confluence, the cells were starved for 24 h in culture medium containing 0.5% FBS. […] Cell viability was measured using CellTiter 96 aqueous one solution kit (Promega). […]

HCC827 xenograft = experiment: Xenograft tumor growth in nude mice, lung cancer HCC827; assay type: in vivo; details: Panel C, 8 weeks, 5 μg/day s.c.
Experimental: (§3) The peptides' activity was compared with GHRH antagonist MIA-602. All statistical analyzses were performed from comparing GHRA antagonists to non-treated tumor (control).
(§4) Peptides and chemicals. GHRH antagonists MIA-602 and AVR-GHRH antagonists (see Table 2 above) were synthesized by solid phase methods and purified by HPLC. The peptides were dissolved in DMSO and further diluted in 10% 1, 2-propanediol. The final concentration of peptides was 50 µg/ml in 10% 1, 2-propanediol containing 0.1% of DMSO.
as §2, with “(NCI-N87), prostate” for “(NCI-N87 and KATOIII), urothelial (J82, RT4), prostatic”, “brest” for “breast”, “HCC-1806),” for “HCC 1806),”
(§5) Xenograft models of human cancers in nude mice. Female athymic (NCr nu/nu) nude mice, 5-to 6-weeks-old, obtained from the Envigo labs (Tampa, FL), were housed in laminar airflow cabinets under pathogen-free conditions with a 12-h light/12-h dark schedule, and were fed autoclaved standard chow and water. To generate mice with xenografted tumors, tumor xenografts were initiated by subcutaneous (s.c.) injection of […] human cancer cells into female nude mice. After about 4 weeks the resulting tumors were dissected and collected after removing necrosis tissues. The tumors were then cut into particles with size of ˜3 mm3 and transplanted s.c. by trocar needle into experimental animals. When tumors grew to the size of 50-60 mm3 (by volume), mice were randomized into groups and treated daily for 4-8 weeks by subcutaneous administration of 5 μg of GHRH antagonists MIA-602 or AVR-compounds (2-10 μg as indicated), or vehicle solutions (0.1% DMSO in 10% 1, 2-propanediol) respectively. Tumor sizes were measured weekly.
(§6) Statistical analysis. One-way ANOVA followed by Bonferroni comparison were performed. Data are expressed as Mean±SEM. To determine statistical significance between animal groups, two-tailed Student's t-test was conducted. Differences were considered significant when p<0.05.
(§7) Results. […] FIG. 1A-N represents in vivo inhibition of tumor growth during the treatment with GHRH antagonist MIA-602 and selected AVR antagonists in nude mice xenografted with various human tumors including pancreatic cancer PANC-1 (FIG. 1A) and CFPAC-1 (FIG. 1I); lung cancer HCC827 (FIGS. 1B, C) and H460 (FIG. 1H); stomach cancer N87 (FIGS. 1D-F); colon cancer HT-29 (FIG. 1G); breast cancer MX-1 and HCC-1806 (FIGS. 1J, K); ovarian cancer SK-OV-3 and OVACAR-3 (FIGS. 1L, M) and prostate cancer PC3 (FIG. 1N). See also Table 5.

HT-29 xenograft = experiment: Xenograft tumor growth in nude mice, colon cancer HT-29; assay type: in vivo; details: Panel G, 6 weeks, 5 μg/day s.c.
Experimental: as §3, §4
as §2, with “(NCI-N87), prostate” for “(NCI-N87 and KATOIII), urothelial (J82, RT4), prostatic”, “brest” for “breast”, “HCC-1806),” for “HCC 1806),”
as §5, §6, §7

PC3 xenograft = experiment: Xenograft tumor growth in nude mice, prostate cancer PC3; assay type: in vivo; details: Panel N, 8 weeks, 5 μg/day s.c.
Experimental: as §3, §4
as §2, with “(NCI-N87), prostate” for “(NCI-N87 and KATOIII), urothelial (J82, RT4), prostatic”, “brest” for “breast”, “HCC-1806),” for “HCC 1806),”
as §5
Statistical analysis. One-way ANOVA followed by Bonferroni comparison were performed. Data are expressed as Mean±SEM. […]

## CCCC[C@H](NC(=O)[C@@H](NC(=O)[C@H](CC(=O)O)NC(=O)[C@H](CCC(N)=O)NC(=O)[C@H](CC(C)C)NC(=O)[C@H](CC(C)C)NC(=O)[C@H](CCCN)NC(=O)[C@H](Cc1c[nH]cn1)NC(=O)[C@H](C)NC(=O)[C@H](CO)NC(=O)[C@H](CC(C)C)NC(=O)[C@H](CCC(N)=O)NC(=O)[C@H](CC)NC(=O)[C@H](CC(C)C)NC(=O)[C@@H](NC(=O)[C@H](CCCN)NC(=O)[C@H](Cc1c[nH]cn1)NC(=O)[C@H](Cc1ccc(OC)cc1)NC(=O)[C@H](CCCCNC(=N)N)NC(=O)[C@H](C)NC(=O)[C@@H](NC(=O)[C@H](Cc1c(F)c(F)c(F)c(F)c1F)NC(=O)[C@@H](NC(=O)[C@H](C)NC(=O)[C@H](CC(=O)O)NC(=O)[C@@H](CCCNC(=N)N)NC(=O)[C@H](Cc1ccc(O)cc1)NC(=O)CCCCCCCCCCCNC(=O)Cc1ccccc1)[C@@H](C)CC)[C@@H](C)O)C(C)C)[C@@H](C)CC)C(=O)N[C@H](CCCNC(=N)N)C(=O)N[C@@H](CCCCNC(=N)N)C(N)=O [MIA-602, PhAC-Ada, Tyr D-Arg, Asp, Ala, Ile, 5FPhe, Thr, Ala, Har, Tyr(Me), His, Orn, Val, Leu, Abu, Gin, Leu, Ser, Ala, His, Orn, Leu, Leu, Gin, Asp, Ile, Nle, D-Arg, Har NH2, reference compound] ({PhAc-12Ado}-Y[dR]DAI[Phe(F5)]TA[hArg]Y(Me)H[Orn]VL[Abu]QLSAH[Orn]LLQDI[Nle][dR][hArg]-NH2)
RT4 cells
  Relative inhibitory potency, Urothelial RT4: 1
SK-OV-3 cells
  In vitro relative inhibitory potency in comparison to MIA-602, SKOV-3: 1
HCC827 xenograft
  Tumor Growth %: 523.03%
HCC827 xenograft; vs control
  % Inhibition: 37.8%
HT-29 xenograft
  Tumor Growth %: 582.10%
PC3 xenograft
  Tumor Growth %: 450.9%
